# ChEMBL document CHEMBL1155129, “Hepatitis C NS5B polymerase inhibitors: 4,4-Dialkyl-1-hydroxy-3-oxo-3,4-dihydronaphthalene-3-yl benzothiadiazine derivatives” (Bioorg Med Chem Lett, 2008)
# Experiments:
# Hepatitis C virus [1] = test: Antiviral activity against HCV 1b in presence of 5% fetal calf serum by replicon based assay; type: functional, organism-based, Hepacivirus hominis; conditions: genotype 1b
# [2] = Inhibition of HCV 1a NS5B polymerase; parameters: species or system Hepatitis C virus subtype 1a
# Hepatitis C virus [3] = test: Inhibition of HCV 1b NS5B polymerase; parameters: species or system Hepatitis C virus subtype 1b
# Hepatitis C virus [4] = test: Antiviral activity against HCV 1a in presence of 5% fetal calf serum by replicon based assay; type: functional, organism-based, Hepacivirus hominis; conditions: subtype 1a
# [5] = AUC (0 to infinity) in rat at 5 mg/kg, po; type: ADME, organism-based; parameters: time infinity, dose 5 mg/kg, route oral; conditions: plasma
# [6] = Cmax in rat plasma at 5 mg/kg, po; type: ADME, organism-based; parameters: dose 5 mg/kg, route oral
# [7] = Half life in rat at 5 mg/kg, iv; type: ADME, organism-based; parameters: dose 5 mg/kg, route intravenous; conditions: in vivo
# [8] = Ratio of drug level in liver to plasma in rat at 5 mg/kg, po after 6 hrs; type: ADME, organism-based; parameters: dose 5 mg/kg, route oral; conditions: other tissue
# [9] = Ratio of drug level in liver to plasma in rat at 5 mg/kg, po after 1 hr; type: ADME, organism-based; parameters: dose 5 mg/kg, route oral; conditions: other tissue
# [10] = Volume of distribution at steady state in rat at 5 mg/kg, iv; type: ADME, organism-based; parameters: dose 5 mg/kg, route intravenous; conditions: in vivo, read-out: Vdss
# [11] = Half life in rat at 5 mg/kg, po; type: ADME, organism-based; parameters: dose 5 mg/kg, route oral; conditions: in vivo
# [12] = Volume of distribution at terminal phase in rat at 5 mg/kg, iv; type: ADME, organism-based; parameters: dose 5 mg/kg, route intravenous; conditions: in vivo, read-out: Vbeta
# [13] = Plasma clearance in rat at 5 mg/kg, iv; type: ADME, organism-based; parameters: dose 5 mg/kg, route intravenous
# [14] = Drug level in rat liver at 5 mg/kg, po after 24 hrs; type: ADME, organism-based; parameters: dose 5 mg/kg, route oral; conditions: read-out: Activity
# [15] = Drug level in rat liver at 5 mg/kg, po after 6 hrs; type: ADME, organism-based; parameters: dose 5 mg/kg, route oral; conditions: read-out: Activity
# [16] = Drug level in rat liver at 5 mg/kg, po after 12 hrs; type: ADME, organism-based; parameters: dose 5 mg/kg, route oral; conditions: read-out: Activity
# [17] = Ratio of drug level in liver to plasma in rat at 5 mg/kg, po after 12 hrs; type: ADME, organism-based; parameters: dose 5 mg/kg, route oral; conditions: other tissue
# [18] = Oral bioavailability in rat at 5 mg/kg; type: ADME, organism-based; conditions: in vivo
# [19] = Drug level in rat plasma at 5 mg/kg, po after 12 hrs; type: ADME, organism-based; parameters: dose 5 mg/kg, route oral; conditions: read-out: Activity
# [20] = AUC (0 to infinity) in rat at 5 mg/kg, iv; type: ADME, organism-based; parameters: time infinity, dose 5 mg/kg, route intravenous; conditions: plasma
# [21] = Tmax in rat at 5 mg/kg, po; type: ADME, organism-based; parameters: dose 5 mg/kg, route oral; conditions: in vivo
# [22] = Drug level in rat plasma at 5 mg/kg, po after 1 hr; type: ADME, organism-based; parameters: dose 5 mg/kg, route oral; conditions: read-out: Activity
# [23] = Drug level in rat liver at 5 mg/kg, po after 1 hr; type: ADME, organism-based; parameters: dose 5 mg/kg, route oral; conditions: read-out: Activity
# [24] = Drug level in rat plasma at 5 mg/kg, po after 6 hrs; type: ADME, organism-based; parameters: dose 5 mg/kg, route oral; conditions: read-out: Activity
Structure (SMILES),EC50 (Hepatitis C virus [1]) [nM],IC50 [2] [nM],IC50 (Hepatitis C virus [3]) [nM],EC50 (Hepatitis C virus [4]) [nM],further results
CC(C)CCn1c(=O)c(C2=NS(=O)(=O)c3ccccc3N2)c(O)c2ccccc21,250,540,,,
CC1(C)C(=O)C(C2=NS(=O)(=O)c3cc(NS(C)(=O)=O)ccc3N2)=C(O)c2ccccc21,,930,6260,,
O=c1c(C2=NS(=O)(=O)c3ccccc3N2)c(O)c2ccccc2n1NC1CCC1,100,280,480,,
CCCC1(CCC)C(=O)C(C2=NS(=O)(=O)c3ccccc3N2)=C(O)c2ccccc21,,2200,,,
CCCCC1(CCCC)C(=O)C(C2=NS(=O)(=O)c3ccccc3N2)=C(O)c2ccccc21,,990,2270,,
CCCCC1(CCCC)C(=O)C(C2=NS(=O)(=O)c3cc(OCC(N)=O)ccc3N2)=C(O)c2ccccc21,290,260,330,9640,
CC1(C)C(=O)C(C2=NS(=O)(=O)c3ccccc3N2)=C(O)c2ccccc21,,2200,6260,,
CC(C)CCC1(CCC(C)C)C(=O)C(C2=NS(=O)(=O)c3ccccc3N2)=C(O)c2ccccc21,,820,,,
CC(C)CCC1(CCC(C)C)C(=O)C(C2=NS(=O)(=O)c3cc(OCC(N)=O)ccc3N2)=C(O)c2ccccc21,> 3000,320,,10100,

# Now those with a lower IC50 [2], led by results:
EC50 (Hepatitis C virus [1]) [nM],IC50 [2] [nM],IC50 (Hepatitis C virus [3]) [nM],EC50 (Hepatitis C virus [4]) [nM],Structure (SMILES),further results
22,99,130,,CCCC1(CCC)C(=O)C(C2=NS(=O)(=O)c3cc(NS(C)(=O)=O)ccc3N2)=C(O)c2ccccc21,
,68,390,,CC(C)CCC1(CCC(C)C)C(=O)C(C2=NS(=O)(=O)c3cc(NS(C)(=O)=O)ccc3N2)=C(O)c2ccccc21,
810,240,,> 10000,CCCC1(CCC)C(=O)C(C2=NS(=O)(=O)c3cc(OCC(N)=O)ccc3N2)=C(O)c2ccccc21,
48,10,73,280,CCCCC1(CCCC)C(=O)C(C2=NS(=O)(=O)c3cc(NS(C)(=O)=O)ccc3N2)=C(O)c2ccccc21,AUC(0-inf) [5]: 6400 ng·h/mL; Cmax [6]: 580 ng/mL; half-life [7]: 4.3 h; Ratio [8]: 48.2 mL/g; Ratio [9]: 34.3 mL/g; Vd [10]: 1.87 L/kg; half-life [11]: 4.3 h; Vd [12]: 6.11 L/kg; clearance [13]: 11.7 mL/min/kg; concentration at 24 h [14]: 150 ng/g; concentration at 6 h [15]: 20800 ng/g; concentration at 12 h [16]: 4600 ng/g; Ratio [17]: 17.3 mL/g; bioavailability [18]: 94.3%; concentration at 12 h [19]: 250 ng/mL; AUC(0-inf) [20]: 7300 ng·h/mL; Tmax [21]: 3 h; concentration at 1 h [22]: 450 ng/mL; concentration at 1 h [23]: 14200 ng/g; concentration at 6 h [24]: 410 ng/mL
